Experimental data as given in ChEMBL document CHEMBL1201861, “Genomics of Drug Sensitity in Cancer screening data, Wellcome Trust Sanger Institute”.

How the values were obtained:
Assay in all cases: cells
[1] = test system: COLO-824; type: functional, cell-based, Homo sapiens; conditions: Homo sapiens, COLO-824
Description: SANGER: Inhibition of human COLO-824 cell growth in a cell viability assay.

[2] = test system: EKVX; type: functional, cell-based, Homo sapiens; conditions: Homo sapiens, EKVX;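 further: growth inhibition of human EKVX cells, read out with a cell viability assay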
Description: SANGER: Inhibition of human EKVX cell growth in a cell viability assay.

[3] = test system: ETK-1; type: functional, cell-based, Homo sapiens; conditions: Homo sapiens, ETK-1;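 further: growth inhibition of human ETK-1 cells, read out with a cell viability assay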
Description: SANGER: Inhibition of human ETK-1 cell growth in a cell viability assay.

[4] = test system: EW-18; type: functional, cell-based; conditions: Homo sapiens;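 further: growth inhibition of EW-18 cells, read out by a cell viability assay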
Description: SANGER: Inhibition of human EW-18 cell growth in a cell viability assay.

[5] = test system: GI-1; type: functional, cell-based, Homo sapiens; conditions: Homo sapiens, GI-1;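 further: growth inhibition of human GI-1 cells, measured with a cell viability readout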
Description: SANGER: Inhibition of human GI-1 cell growth in a cell viability assay.

[6] = test system: HCC1187; type: functional, cell-based, Homo sapiens; conditions: Homo sapiens, HCC1187;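 further: growth inhibition of HCC1187 cells, read out with a cell viability assay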
Description: SANGER: Inhibition of human HCC1187 cell growth in a cell viability assay.

[7] = test system: HCC38; type: functional, cell-based, Homo sapiens; conditions: Homo sapiens, HCC38;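 further: cell viability assay on the human HCC38 cell line, with IC50 marking the concentration that inhibits cell growth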
Description: SANGER: Inhibition of human HCC38 cell growth in a cell viability assay.

[8] = test system: HSC-3; type: functional, cell-based, Homo sapiens; conditions: Homo sapiens, HSC-3
Description: SANGER: Inhibition of human HSC-3 cell growth in a cell viability assay.

[9] = test system: JEG-3; type: functional, cell-based, Homo sapiens; conditions: Homo sapiens, JEG-3;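 further: growth inhibition of human JEG-3 cells, read out with a cell viability assay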
Description: SANGER: Inhibition of human JEG-3 cell growth in a cell viability assay.

[10] = test system: K5; type: functional, cell-based, Homo sapiens; conditions: Homo sapiens, K5
Description: SANGER: Inhibition of human K5 cell growth in a cell viability assay.

[11] = test system: KARPAS-45; type: functional, cell-based; conditions: Homo sapiens;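 further: inhibition of cell line growth, read out through a viability assay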
Description: SANGER: Inhibition of human KARPAS-45 cell growth in a cell viability assay.

[12] = test system: KU812 cell line; type: functional, cell-based; conditions: Homo sapiens;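 further: growth inhibition of KU812 cells, read out with a cell viability assay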
Description: SANGER: Inhibition of human KU812 cell growth in a cell viability assay.

[13] = test system: KYSE-140; type: functional, cell-based, Homo sapiens; conditions: Homo sapiens, KYSE-140;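 further: cell viability assay measuring growth inhibition in human KYSE-140 cells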
Description: SANGER: Inhibition of human KYSE-140 cell growth in a cell viability assay.

[14] = test system: KYSE-270; type: functional, cell-based, Homo sapiens; conditions: Homo sapiens, KYSE-270;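 further: cell growth inhibition measured with a viability assay in the human KYSE-270 line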
Description: SANGER: Inhibition of human KYSE-270 cell growth in a cell viability assay.

[15] = test system: LS-1034; type: functional, cell-based, Homo sapiens; conditions: Homo sapiens, LS-1034
Description: SANGER: Inhibition of human LS-1034 cell growth in a cell viability assay.

[16] = test system: MDA-MB-157; type: functional, cell-based, Homo sapiens; conditions: Homo sapiens, MDA-MB-157
Description: SANGER: Inhibition of human MDA-MB-157 cell growth in a cell viability assay.

[17] = test system: MDA-MB-231; type: functional, cell-based, Homo sapiens; conditions: Homo sapiens, MDA-MB-231
Description: SANGER: Inhibition of human MDA-MB-231 cell growth in a cell viability assay.

[18] = test system: MEL-HO; type: functional, cell-based, Homo sapiens; conditions: Homo sapiens, MEL-HO
Description: SANGER: Inhibition of human MEL-HO cell growth in a cell viability assay.

[19] = test system: NB13; type: functional, cell-based, Homo sapiens; conditions: Homo sapiens, NB13;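 further: cell viability readout measuring growth inhibition of human NB13 cells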
Description: SANGER: Inhibition of human NB13 cell growth in a cell viability assay.

[20] = test system: NB14; type: functional, cell-based; conditions: Homo sapiens;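 further: growth inhibition of NB14 cells measured with a cell viability assay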
Description: SANGER: Inhibition of human NB14 cell growth in a cell viability assay.

[21] = test system: NB69; type: functional, cell-based, Homo sapiens; conditions: Homo sapiens, NB69;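 further: growth inhibition of NB69 cells, determined by a cell viability assay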
Description: SANGER: Inhibition of human NB69 cell growth in a cell viability assay.

[22] = test system: NCI-H1304; type: functional, cell-based; conditions: Homo sapiens;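 further: growth inhibition of the cancer cell line, measured in a cell viability assay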
Description: SANGER: Inhibition of human NCI-H1304 cell growth in a cell viability assay.

[23] = test system: NCI-H1355; type: functional, cell-based, Homo sapiens; conditions: Homo sapiens, NCI-H1355;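 further: growth inhibition of human NCI-H1355 cells, read out by a cell viability assay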
Description: SANGER: Inhibition of human NCI-H1355 cell growth in a cell viability assay.

[24] = test system: NCI-H292; type: functional, cell-based, Homo sapiens; conditions: Homo sapiens, NCI-H292;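 further: growth inhibition of NCI-H292 cells, read out with a cell viability assay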
Description: SANGER: Inhibition of human NCI-H292 cell growth in a cell viability assay.

[25] = test system: NCI-H596; type: functional, cell-based, Homo sapiens; conditions: Homo sapiens, NCI-H596;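 further: growth inhibition of NCI-H596 cells, read out with a cell viability assay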
Description: SANGER: Inhibition of human NCI-H596 cell growth in a cell viability assay.

[26] = test system: NUGC-3; type: functional, cell-based, Homo sapiens; conditions: Homo sapiens, NUGC-3;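 further: growth inhibition of human NUGC-3 cells, read out with a cell viability assay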
Description: SANGER: Inhibition of human NUGC-3 cell growth in a cell viability assay.

[27] = test system: OCI-AML2; type: functional, cell-based; conditions: Homo sapiens;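 further: growth inhibition of OCI-AML2 cells, read out with a cell viability assay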
Description: SANGER: Inhibition of human OCI-AML2 cell growth in a cell viability assay.

[28] = test system: OMC-1; type: functional, cell-based, Homo sapiens; conditions: Homo sapiens, OMC-1;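 further: growth inhibition of the OMC-1 cell line, measured by a cell viability assay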
Description: SANGER: Inhibition of human OMC-1 cell growth in a cell viability assay.

[29] = test system: RERF-LC-MS; type: functional, cell-based, Homo sapiens; conditions: Homo sapiens, RERF-LC-MS;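 further: growth inhibition of human RERF-LC-MS cells, read out by a cell viability assay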
Description: SANGER: Inhibition of human RERF-LC-MS cell growth in a cell viability assay.

[30] = test system: RPMI-7951; type: functional, cell-based, Homo sapiens; conditions: Homo sapiens, RPMI-7951
Description: SANGER: Inhibition of human RPMI-7951 cell growth in a cell viability assay.

[31] = test system: SCC-15; type: functional, cell-based, Homo sapiens; conditions: Homo sapiens, SCC-15;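 further: growth inhibition of SCC-15 cells, read out with a cell viability assay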
Description: SANGER: Inhibition of human SCC-15 cell growth in a cell viability assay.

[32] = test system: SK-LU-1; type: functional, cell-based, Homo sapiens; conditions: Homo sapiens, SK-LU-1;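 further: cell viability assay measuring growth inhibition of human SK-LU-1 cells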
Description: SANGER: Inhibition of human SK-LU-1 cell growth in a cell viability assay.

[33] = test system: SK-PN-DW; type: functional, cell-based; conditions: Homo sapiens;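 further: growth inhibition measured with a viability assay on these cells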
Description: SANGER: Inhibition of human SK-PN-DW cell growth in a cell viability assay.

[34] = test system: SK-UT-1; type: functional, cell-based, Homo sapiens; conditions: Homo sapiens, SK-UT-1;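 further: growth inhibition of SK-UT-1 cells, measured by a cell viability assay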
Description: SANGER: Inhibition of human SK-UT-1 cell growth in a cell viability assay.

[35] = test system: SW1783; type: functional, cell-based; conditions: Homo sapiens;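 further: cell growth inhibition measured with a viability assay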
Description: SANGER: Inhibition of human SW1783 cell growth in a cell viability assay.

[36] = test system: SW626; type: functional, cell-based, Homo sapiens; conditions: Homo sapiens, SW626;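 further: growth inhibition of SW626 cells, measured with a cell viability assay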
Description: SANGER: Inhibition of human SW626 cell growth in a cell viability assay.

[37] = test system: SW948; type: functional, cell-based, Homo sapiens; conditions: Homo sapiens, SW948;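 further: growth inhibition of SW948 cells, read out with a cell viability assay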
Description: SANGER: Inhibition of human SW948 cell growth in a cell viability assay.

[38] = test system: SiHa; type: functional, cell-based, Homo sapiens; conditions: Homo sapiens, SiHa;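 further: Viability-based readout of growth inhibition in SiHa cells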
Description: SANGER: Inhibition of human SiHa cell growth in a cell viability assay.

[39] = test system: T84; type: functional, cell-based, Homo sapiens; conditions: Homo sapiens, T84;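 further: growth inhibition measured with a cell viability readout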
Description: SANGER: Inhibition of human T84 cell growth in a cell viability assay.

[40] = test system: ALL-PO; type: functional, cell-based; conditions: Homo sapiens;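 further: growth inhibition of ALL-PO cells, read out by a cell viability assay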
Description: SANGER: Inhibition of human ALL-PO cell growth in a cell viability assay.

[41] = test system: ATN-1; type: functional, cell-based; conditions: Homo sapiens;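 further: growth inhibition of human ATN-1 cells, read out with a cell viability assay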
Description: SANGER: Inhibition of human ATN-1 cell growth in a cell viability assay.

[42] = test system: BB30-HNC; type: functional, cell-based, Homo sapiens; conditions: Homo sapiens, BB30-HNC;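 further: growth inhibition of the cultured cell line, read out by a cell viability assay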
Description: SANGER: Inhibition of human BB30-HNC cell growth in a cell viability assay.

[43] = test system: CAL-85-1; type: functional, cell-based; conditions: Homo sapiens;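 further: growth inhibition of human CAL-85-1 cells, read out with a cell viability assay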
Description: SANGER: Inhibition of human CAL-85-1 cell growth in a cell viability assay.

[44] = test system: TE-8; type: functional, cell-based, Homo sapiens; conditions: Homo sapiens, TE-8;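 further: growth inhibition of TE-8 cells, measured with a cell viability readout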
Description: SANGER: Inhibition of human TE-8 cell growth in a cell viability assay.

[45] = test system: TK-10; type: functional, cell-based, Homo sapiens; conditions: Homo sapiens, TK-10;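 further: growth inhibition of TK-10 cells, read out in a cell viability assay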
Description: SANGER: Inhibition of human TK10 cell growth in a cell viability assay.

[46] = test system: U-118-MG; type: functional, cell-based, Homo sapiens; conditions: Homo sapiens, U-118-MG
Description: SANGER: Inhibition of human U-118-MG cell growth in a cell viability assay.

[47] = test system: UO-31; type: functional, cell-based; conditions: Homo sapiens;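 further: cell viability assay measuring inhibition of cell growth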
Description: SANGER: Inhibition of human U031 cell growth in a cell viability assay.

[48] = test system: UMUC3; type: functional, cell-based, Homo sapiens; conditions: Homo sapiens, UMUC3;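 further: growth inhibition of human UM-UC-3 cells, read out with a cell viability assay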
Description: SANGER: Inhibition of human UM-UC-3 cell growth in a cell viability assay.

[49] = test system: CCRF-CEM; type: functional, cell-based; conditions: Homo sapiens;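 further: inhibition of CCRF-CEM cell growth, measured by a cell viability assay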
Description: SANGER: Inhibition of human CCRF-CEM cell growth in a cell viability assay.

[50] = test system: COLO-320-HSR; type: functional, cell-based; conditions: Homo sapiens;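 further: growth inhibition of COLO-320-HSR cells, determined with a cell viability assay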
Description: SANGER: Inhibition of human COLO-320-HSR cell growth in a cell viability assay.

[51] = test system: COLO-668; type: functional, cell-based, Homo sapiens; conditions: Homo sapiens, COLO-668
Description: SANGER: Inhibition of human COLO-668 cell growth in a cell viability assay.

[52] = test system: COLO-684; type: functional, cell-based; conditions: Homo sapiens
Description: SANGER: Inhibition of human COLO-684 cell growth in a cell viability assay.

COc1ccc(C2=N[C@@H](c3ccc(Cl)cc3)[C@@H](c3ccc(Cl)cc3)N2C(=O)N2CCNC(=O)C2)c(OC(C)C)c1 [NUTLIN-3]
IC50 [1]: > 8 µM | IC50 [2]: > 8 µM | IC50 [3]: > 8 µM | IC50 [4]: > 8 µM | IC50 [5]: > 8 µM | IC50 [6]: > 8 µM | IC50 [7]: > 8 µM | IC50 [8]: > 8 µM | IC50 [9]: > 8 µM | IC50 [10]: 1.42 µM | IC50 [11]: > 8 µM | IC50 [12]: > 8 µM | IC50 [13]: > 8 µM | IC50 [14]: > 8 µM | IC50 [15]: > 8 µM | IC50 [16]: > 8 µM | IC50 [17]: > 8 µM | IC50 [18]: 5.86 µM | IC50 [19]: > 8 µM | IC50 [20]: > 8 µM | IC50 [21]: 2.65 µM | IC50 [22]: > 8 µM | IC50 [23]: > 8 µM | IC50 [24]: 3.12 µM | IC50 [25]: > 8 µM | IC50 [26]: > 8 µM | IC50 [27]: > 8 µM | IC50 [28]: > 8 µM | IC50 [29]: > 8 µM | IC50 [30]: > 8 µM | IC50 [31]: > 8 µM | IC50 [32]: > 8 µM | IC50 [33]: > 8 µM | IC50 [34]: > 8 µM | IC50 [35]: > 8 µM | IC50 [36]: > 8 µM | IC50 [37]: > 8 µM | IC50 [38]: > 8 µM | IC50 [39]: > 8 µM | IC50 [40]: > 8 µM | IC50 [41]: > 8 µM | IC50 [42]: > 8 µM | IC50 [43]: > 8 µM | IC50 [44]: > 8 µM | IC50 [45]: > 8 µM | IC50 [46]: > 8 µM | IC50 [47]: > 8 µM | IC50 [48]: > 8 µM | IC50 [49]: > 8 µM | IC50 [50]: > 8 µM | IC50 [51]: > 8 µM | IC50 [52]: > 8 µM

O=C1N=C(NCc2cccs2)S/C1=C\c1ccc2ncccc2c1
IC50 [1]: > 5 µM | IC50 [2]: > 5 µM | IC50 [3]: > 5 µM | IC50 [4]: > 5 µM | IC50 [5]: > 5 µM | IC50 [6]: > 5 µM | IC50 [7]: > 5 µM | IC50 [8]: > 5 µM | IC50 [9]: > 5 µM | IC50 [10]: > 5 µM | IC50 [11]: > 5 µM | IC50 [12]: > 5 µM | IC50 [13]: > 5 µM | IC50 [14]: > 5 µM | IC50 [15]: > 5 µM | IC50 [16]: > 5 µM | IC50 [17]: > 5 µM | IC50 [18]: > 5 µM | IC50 [19]: > 5 µM | IC50 [20]: > 5 µM | IC50 [21]: > 5 µM | IC50 [22]: > 5 µM | IC50 [23]: > 5 µM | IC50 [24]: > 5 µM | IC50 [25]: > 5 µM | IC50 [26]: > 5 µM | IC50 [27]: > 5 µM | IC50 [28]: > 5 µM | IC50 [29]: > 5 µM | IC50 [30]: > 5 µM | IC50 [31]: > 5 µM | IC50 [32]: > 5 µM | IC50 [33]: > 5 µM | IC50 [34]: > 5 µM | IC50 [35]: > 5 µM | IC50 [36]: > 5 µM | IC50 [37]: > 5 µM | IC50 [38]: > 5 µM | IC50 [39]: > 5 µM | IC50 [40]: 1.91 µM | IC50 [41]: > 5 µM | IC50 [42]: > 5 µM | IC50 [43]: > 5 µM | IC50 [44]: > 5 µM | IC50 [45]: > 5 µM | IC50 [46]: > 5 µM | IC50 [47]: > 5 µM | IC50 [48]: 2.74 µM | IC50 [49]: > 5 µM | IC50 [50]: > 5 µM | IC50 [51]: > 5 µM | IC50 [52]: > 5 µM

CCOc1nc(NC(=O)Cc2cc(OC)ccc2OC)cc(N)c1C#N
IC50 [1]: > 10 µM | IC50 [2]: > 10 µM | IC50 [3]: > 10 µM | IC50 [4]: > 10 µM | IC50 [5]: > 10 µM | IC50 [6]: > 10 µM | IC50 [7]: > 10 µM | IC50 [8]: > 10 µM | IC50 [9]: > 10 µM | IC50 [10]: > 10 µM | IC50 [11]: > 10 µM | IC50 [12]: > 10 µM | IC50 [13]: > 10 µM | IC50 [14]: > 10 µM | IC50 [15]: > 10 µM | IC50 [16]: > 10 µM | IC50 [17]: > 10 µM | IC50 [18]: > 10 µM | IC50 [19]: > 10 µM | IC50 [20]: > 10 µM | IC50 [21]: > 10 µM | IC50 [22]: > 10 µM | IC50 [23]: > 10 µM | IC50 [24]: > 10 µM | IC50 [25]: > 10 µM | IC50 [26]: > 10 µM | IC50 [27]: > 10 µM | IC50 [28]: > 10 µM | IC50 [29]: > 10 µM | IC50 [30]: > 10 µM | IC50 [31]: > 10 µM | IC50 [32]: > 10 µM | IC50 [33]: > 10 µM | IC50 [34]: > 10 µM | IC50 [35]: > 10 µM | IC50 [36]: > 10 µM | IC50 [37]: > 10 µM | IC50 [38]: > 10 µM | IC50 [39]: > 10 µM | IC50 [40]: > 10 µM | IC50 [41]: > 10 µM | IC50 [42]: > 10 µM | IC50 [43]: > 10 µM | IC50 [44]: > 10 µM | IC50 [45]: > 10 µM | IC50 [46]: > 10 µM | IC50 [47]: > 10 µM | IC50 [48]: > 10 µM | IC50 [49]: > 10 µM | IC50 [50]: > 10 µM | IC50 [51]: > 10 µM | IC50 [52]: > 10 µM
